Patent US8603498B2, “Lipo-phosphated or lipo-sulphated compound, compositions comprising it and topical uses thereof” (Sederma, S.A.S., priority 2010, dated 2013)

Assays:
filaggrin/profilaggrin = assay: Filaggrin synthesis on human keratinocytes (immunofluorescent method); type: cell-based; conditions: for Filaggrin/profilaggrin (UFA/10^6 cell.): 21 days contact; for Filaggrin/profilaggrin Change (%): vs control
Description: (§1) Protocol: Human keratinocytes were cultivated up to confluence. The cells were then placed in contact/not contact with the solubilized Lipo-Phosphomalate for 21 days. At the end of this contact period, labelling common to both filaggrin and profilaggrin was carried out on cell layers using specific antibodies. Labelling intensity was analysed on photos (n=15 photos) and compared to that obtained for the negative control and for vitamin D3 at 10^−7M used as a positive differentiation control.

caspase-14 = assay: Production of caspase-14 in cultured human keratinocytes by immunolabelling; type: cell-based; conditions: for Caspase Change (%): vs control
loricrin = assay: Production of loricrin in cultured human keratinocytes by immunolabelling; type: cell-based; conditions: for Loricrin Change (%): vs control
Description: as §1
Loricrine is one of the key elements in the formation of the corneal envelope. It is attached to involucrin (see 1.1) by transglutaminase, which forms rigid, insoluble structures. The method described in 1.2. was used.

transglutaminase = assay: Transglutaminase activity in keratinocytes by enzymology (fluorescent substrate); type: cell-based, human; conditions: 5 ppm, 14 days; for Enzymology % Change: vs control
Excerpt: At the end of the 14-day contact period, the cells were placed in contact with a fluorescent synthetic transglutaminase substrate. Metabolisation of the substrate via transglutaminase will allow the fixation in the intracellular protein matrix. After rinsing, the non fixed fluorescent substrate is eliminated and the fluorescence fixed in the cells by the enzyme is quantified.

transglutaminase-1 gene = assay: DNA-Array study, transglutaminase-1 gene; type: cell-based; conditions: in the presence of solubilised Lipo-Phosphomalate
Excerpt: (§2) In addition, a DNA-Array study has shown that the transglutaminase-1 and involucrin genes are over-expressed in the network with other genes essential for the formation of the corinfied layer in the presence of solubilised Lipo-Phosphomalate.

involucrin gene = assay: DNA-Array study, involucrin gene; type: cell-based; conditions: in the presence of solubilised Lipo-Phosphomalate
Excerpt: as §2

cholesterol = assay: Cholesterol in keratinocytes by immunolabelling (IMF); type: cell-based, human; conditions: 5 ppm, 7 days
Description: Cultured human keratinocytes at confluence were placed in contact with the Lipo-Phosphomalate in a medium slightly enriched with calcium to promote the establishment of intercellular junctions and thus improve the anchorage of differentiated cells to the underlying cells. A negative control was carried out in the same medium. After a 7-day contact period, the layer was labeled with a cholesterol-specific fluorescent. The intensity of the labeling was analysed on the photos and compared to that obtained with the negative control (Table 6).

[1] = tested on: non hydroxylated ceramides; assay: Non hydroxylated ceramides in keratinocytes by HPTLC; type: cell-based, human; conditions: 5 ppm
Description: (§3) The same protocol was followed as before but a larger quantity of keratinocyes was used on this occasion because of the limits of detection of the apparatus. After 7 days, the layers were rinsed, lipids extracted using solvents before being deposited on a thin-layer chromatography plate using an automated device. After migration and detection, the bands were analysed and quantified based on a range of standard lipids deposited on the same plate.
(§4) At the same time as the HPTLC cholesterol assay, an assay of hydroxylated and non-hydroxylated ceramides was carried out on the extracts.

hydroxylated ceramides = assay: Hydroxylated ceramides in keratinocytes by HPTLC; type: cell-based, human; conditions: 5 ppm
Description: as §3, §4

fibroblasts = assay: Lipid production in fibroblasts; type: cell-based
Excerpt: (§5) This lipid production by the Lipo-Phosphomalate was not observed in fibroblasts or melanocytes. It is therefore a specific effect related to the metabolism of keratinocyte during its differentiation.

melanocytes = assay: Lipid production in melanocytes; type: cell-based
Excerpt: as §5

hyaluronic acid = assay: Synthesis of hyaluronic acid by human keratinocytes (ELISA); type: cell-based; conditions: for hyaluronic acid ng/10^e6 cells: 3 days, supernatant
Description: Protocol: Human keratinocytes are humains were cultivated in MW24 plates for 24 h. Cells were contacted or not with the Lipo-Phosphomalate for 3 days. Culture surpernatants were taken and an assay of the quantity of hyaluronic acid was achieved. Retinoic acid was used as the positive control.

laminin = assay: Laminin synthesis by human keratinocytes (ELISA); type: cell-based; conditions: for laminin ng/10^e6cells: 3 days, supernatant
Description: Human keratinocytes are humains were cultivated in MW24 plates for 24 h. Cells were contacted or not with the Lipo-Phosphomalate for 3 days. Culture surpernatants were taken and an assay of the quantity of laminin was achieved. TGF-β1 was used as the positive control.

G3PDH = G3PDH activity in differentiating 3T3-L1 cells; type: cell-based
Description: 3T3-L1 cells were cultivated until sub-confluence, then induced to differentiate with the appropriate mixture with or without the Lipo-Phosphomalate at different concentrations. After 3 days of incubation, the differenciation mixture is replaced by a new maintaining culture medium, in the presence or not of the Lipo-Phosphomalate. After 3 days of incubation, the cell layers are collected and the activity of G3PDH is assayed.

triglycerides = assay: Synthesis of intracellular triglycerides in 3T3-L1 cells (enzymatic method); type: cell-based
Description: 3T3-L1 cells were cultivated until sub-confluence, then induced to differentiate with the appropriate mixture with or without the Lipo-Phosphomalate at different concentrations. After 3 days of incubation, the differenciation mixture is replaced by a new maintaining culture medium, in the presence or not of the Lipo-Phosphomalate. After 3 days of incubation, the quantity of intracellular triglycerides is measured by enzymatic method.

3T3-L1 cells = assay: Lipid incorporation by 3T3-L1 cells (oil red, image analysis); type: cell-based
Description: 3T3-L1 cells are sowed and cultivated for 4 days (multiplication). Follow a differentiation phase (incubation with a classic differentiation mixture) and then a maturation phase (with a maturation mixture) in the presence or not of the Lipo-Phosphomalate at different concentrations. At the end of this period, cells were washed, fixed and coloured with oil red. The cell layers were photographed digitally and the red color is quantified by image analysis. The surface percentages of red oil, reported in the table below, were established compared to untreated control cells, and the test validated by comparison to pioglytazone (10 μM), positive control for stimulation of differentiation.

[2] = 5 ppm, listed as Solubilised Lipo-Phosphomalate
[3] = 5 ppm, listed as solubilised Lipo-Phosphomalate

`CCCCCCCCCCCCCCOC(=O)CC(OP(=O)(O)O)C(=O)O` (stereo not shown) [Lipo-Phosphomalate, 2-phosphate-succinic-acid-4-tetradecyle ester] was tested, and the “Filaggrin/profilaggrin (UFA/10^6 cell.)” value (filaggrin/profilaggrin; 1.5 ppm) was 3.04 ± 1.21 UFA/10^6 cell, the “Filaggrin/profilaggrin Change (%)” value (filaggrin/profilaggrin; 1.5 ppm) was “+119%; p < 0.01” and the “Filaggrin/profilaggrin (UFA/10^6 cell.)” value (filaggrin/profilaggrin; 5 ppm) was 5.00 ± 1.58 UFA/10^6 cell. For the same compound, the “Filaggrin/profilaggrin Change (%)” value (filaggrin/profilaggrin; [2]) was “+259%; p < 0.01”, the “Filaggrin/profilaggrin Change (%)” value (filaggrin/profilaggrin; [3]) was “+259%” and the “Caspase (UFA/10^6 cell.)” value (caspase-14; 1.5 ppm) was 1.13 ± 0.44 UFA/10^6 cell. The “Caspase Change (%)” value (caspase-14; 1.5 ppm) was “+121%; p < 0.01”, the “Caspase (UFA/10^6 cell.)” value (caspase-14; 5 ppm) was 1.68 ± 0.64 UFA/10^6 cell and the “Caspase Change (%)” value (caspase-14; [2]) was “+229%; p < 0.01”. For the same compound, the “Caspase Change (%)” value (caspase-14; [3]) was “+229%”, the “Loricrin (UFA/10^6 cell.)” value (loricrin; 1.5 ppm) was 1.69 ± 0.67 UFA/10^6 cell and the “Loricrin Change (%)” value (loricrin; 1.5 ppm) was “+131%; p < 0.01”. For the same compound, the “Loricrin (UFA/10^6 cell.)” value (loricrin; 5 ppm) was 3.84 ± 1.19 UFA/10^6 cell, the “Loricrin Change (%)” value (loricrin; 5 ppm) was “+426%; p < 0.01” and the “Enzymology Transglutaminase (UFA/10^6 cell.)” value (transglutaminase) was 516 ± 63 UFA/10^6 cell. The “Enzymology % Change” value (transglutaminase; listed as Solubilised Lipo-Phosphomalate) was “+124%; p < 0.01”, the “Enzymology % Change” value (transglutaminase; listed as solubilised Lipo-Phosphomalate) was “~+100%” and the “transglutaminase-1 gene expression (DNA-Array)” value (transglutaminase-1 gene) was “over-expressed”. For the same compound, the “involucrin gene expression (DNA-Array)” value (involucrin gene) was “over-expressed”, the “IMF Cholesterol (UFA/10^6 cell.)” value (cholesterol) was 4.98 ± 2.59 UFA/10^6 cell and the “IMF Cholesterol % Change” value (cholesterol; vs control) was “+107%; p < 0.04”. For the same compound, the “Non hydroxylated Ceramides (pg/10^6 cell.)” value ([1]; 7 days) was 8.41 ± 1.30 pg/10^6 cell, the “Non hydroxylated Ceramides % Change” value ([1]; vs control) was “+256%; p < 0.01” and the “Hydroxylated Ceramides (pg/10^5 cell.)” value (hydroxylated ceramides; 7 days) was 10.50 ± 1.12 pg/10^5 cell. The “Hydroxylated Ceramides Change (number of times)” value (hydroxylated ceramides; vs control) was “×7.5”, the “lipid production (cholesterol, ceramides)” value (fibroblasts) was “not observed” and the “lipid production (cholesterol, ceramides)” value (melanocytes) was “not observed”. The “hyaluronic acid % Change/control” value (hyaluronic acid; 1.67 ppm) was “+16%; p < 0.01”, the “hyaluronic acid ng/10^e6 cells” value (hyaluronic acid; 1.67 ppm) was 1015 +/− 46 ng/10^e6 cells and the “hyaluronic acid % Change/control” value (hyaluronic acid; 5 ppm) was “+57%; p < 0.01”. The “hyaluronic acid ng/10^e6 cells” value (hyaluronic acid; 5 ppm) was 1374 +/− 50 ng/10^e6 cells, the “hyaluronic acid % Change/control” value (hyaluronic acid; 8.33 ppm) was “+69%; p < 0.01” and the “hyaluronic acid ng/10^e6 cells” value (hyaluronic acid; 8.33 ppm) was 1480 +/− 51 ng/10^e6 cells. For the same compound, the “laminin % Variation/control” value (laminin; 1.67 ppm) was “+64%; p < 0.01”, the “laminin ng/10^e6cells” value (laminin; 1.67 ppm) was 190 +/− 11 ng/10^e6cells and the “laminin % Variation/control” value (laminin; 5 ppm) was “+187%; p < 0.01”. The “laminin ng/10^e6cells” value (laminin; 5 ppm) was 333 +/− 10 ng/10^e6cells, the “laminin % Variation/control” value (laminin; 8.33 ppm) was “+196%; p < 0.01” and the “laminin ng/10^e6cells” value (laminin; 8.33 ppm) was 343 +/− 10 ng/10^e6cells. The “G3PDH activity % Change/control” value (G3PDH; 10 ppm) was “+158%; p < 0.01”, the “G3PDH activity % Change/control” value (G3PDH; 15 ppm) was “+225%; p < 0.01” and the “intracellular triglycerides % Change/control” value (triglycerides; 10 ppm) was “+112%; p < 0.01”. For the same compound, the “intracellular triglycerides % Change/control” value (triglycerides; 15 ppm) was “+210%; p < 0.01”, the “surface of red oil % Change/control” value (3T3-L1 cells; 10 ppm) was “+171%; p < 0.01” and the “surface of red oil % Change/control” value (3T3-L1 cells; 15 ppm) was “+294%; p < 0.01”. For the same compound, the “surface of red oil % Change/control” value (3T3-L1 cells; 20 ppm) was “+481%; p < 0.01”.
